For this test, the target named is T1, Recombinant human His-tagged Trim24-PHD-bromodomain (Homo sapiens, UniProt O15164).
T1 construct: Recombinant human His-tagged Trim24-PHD-bromodomain (produced in-house); made in house
T1 sequence (O15164 824-1006 limits assumed): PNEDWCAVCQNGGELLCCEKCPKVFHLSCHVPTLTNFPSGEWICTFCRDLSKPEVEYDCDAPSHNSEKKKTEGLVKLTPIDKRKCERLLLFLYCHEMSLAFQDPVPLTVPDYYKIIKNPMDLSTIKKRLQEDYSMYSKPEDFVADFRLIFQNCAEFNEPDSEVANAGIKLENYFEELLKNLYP
The test can be described thus: Trim24 AlphaScreen Assay. Format: binding. Particulars: 5 nM Trim24 protein, 15 nM biotinylated H3K23ac (1-33aa) peptide. On the procedure: Recombinant human His-tagged Trim24-PHD-bromodomain (produced in-house), biotinylated H3K23ac (1-33aa) peptide (AnaSpec, Inc.), and test compound were added to a 384-well OptiPlate (Perkin Elmer) and incubated at room temperature for one hour. The assay buffer consisted of 50 mM Hepes, pH 7.5, 100 mM NaCl, and 0.12 mM Triton X-100.
Streptavidin donor beads and nickel chelate acceptor beads, both from a Perkin Elmer AlphaScreen Histidine Detection Kit, were then added to the Optiplate to a final concentration of 10 ug/mL each. Following a 2 hour incubation at room temperature, the microplate was read on an Envision Plate Reader (Perkin Elmer). Percent of control (POC) values were calculated from the following formula:
POC=[sample signal-average background signal]/[average maximum signal−average background signal]*100
The average maximum signal was obtained from wells containing all assay components except test compound. The average background signal pertained to wells with all assay components except Trim24 and test compound. IC50 values were calculated using a four-parameter logistic curve fit.
In the case of `Cc1nc(S(=O)(=O)Nc2cc3c(cc2Oc2cccc(OCC(=O)N(C)C)c2)n(C)c(=O)n3C)cn1C` [Example 56, 2-(3-((6-((1,2-dimethyl-1H-imidazole)-4-sulfonamido)-1,3-dimethyl-2-oxo-2,3-dihydro-1H-benzo[d]imidazol-5-yl)oxy)phenoxy)-N,N-dimethylacetamide], the IC50 is > 1000 nM.
Under `CCCCOc1cccc(Oc2cc3c(cc2NS(=O)(=O)c2cn(C)c(C)n2)n(C)c(=O)n3C)c1` [Example 57, N-(6-(3-butoxyphenoxy)-1,3-dimethyl-2-oxo-2,3-dihydro-1H-benzo[d]imidazol-5-yl)-1,2-dimethyl-1H-imidazole-4-sulfonamide] stands 100 to 1000 nM.
For the molecule `Cc1nc(S(=O)(=O)Nc2cc3c(cc2Oc2cccc(OCC4CC4)c2)n(C)c(=O)n3C)cn1C` [Example 58, N-(6-(3-(cyclopropylmethoxy)phenoxy)-1,3-dimethyl-2-oxo-2,3-dihydro-1H-benzo[d]imidazol-5-yl)-1,2-dimethyl-1H-imidazole-4-sulfonamide], the half-inhibitory concentration (IC50) was in the range of 10 to 100 nM.
Regarding `CC(C)COc1cccc(Oc2cc3c(cc2NS(=O)(=O)C2CC2)n(C)c(=O)n3C)c1` [Example 59, N-(6-(3-isobutoxyphenoxy)-1,3-dimethyl-2-oxo-2,3-dihydro-1H-benzo[d]imidazol-5-yl)cyclopropanesulfonamide], the IC50 lay within 100 to 1000 nM.
Under `CC(C)COc1cccc(Oc2cc3c(cc2NS(=O)(=O)c2cnn(C)c2)n(C)c(=O)n3C)c1` [Example 60, N-(6-(3-isobutoxyphenoxy)-1,3-dimethyl-2-oxo-2,3-dihydro-1H-benzo[d]imidazol-5-yl)-1-methyl-1H-pyrazole-4-sulfonamide] stands 10 to 100 nM; under `CCCOc1cccc(Oc2cc3c(cc2NS(=O)(=O)c2cn(C)c(C)n2)n(C)c(=O)n3C)c1` [Example 61, N-(1,3-dimethyl-2-oxo-6-(3-propoxyphenoxy)-2,3-dihydro-1H-benzo[d]imidazol-5-yl)-1,2-dimethyl-1H-imidazole-4-sulfonamide], 10 to 100 nM.
In the case of `CCC(C)COc1cccc(Oc2cc3c(cc2NS(=O)(=O)c2cn(C)c(C)n2)n(C)c(=O)n3C)c1` (stereo not drawn) [Example 62, N-(1,3-dimethyl-6-(3-(2-methylbutoxy)phenoxy)-2-oxo-2,3-dihydro-1H-benzo[d]imidazol-5-yl)-1,2-dimethyl-1H-imidazole-4-sulfonamide], the IC50 fell in the range of 100 to 1000 nM.
With `COc1cccc(Oc2cc3c(cc2NS(=O)(=O)c2cn(C)cn2)n(C)c(=O)n3C)c1` [Example 63, N-(6-(3-methoxyphenoxy)-1,3-dimethyl-2-oxo-2,3-dihydro-1H-benzo[d]imidazol-5-yl)-1-methyl-1H-imidazole-4-sulfonamide], the IC50 was 100 to 1000 nM.
With `Cn1cnc(S(=O)(=O)Nc2cc3c(cc2Oc2cccc(OCC4CCOC4)c2)n(C)c(=O)n3C)c1` (stereo not drawn) [Example 64, N-(1,3-dimethyl-2-oxo-6-(3-((tetrahydrofuran-3-yl)methoxy)phenoxy)-2,3-dihydro-1H-benzo[d]imidazol-5-yl)-1-methyl-1H-imidazole-4-sulfonamide], the IC50 fell in the range of 100 to 1000 nM.
Under `Cn1cnc(S(=O)(=O)Nc2cc3c(cc2Oc2cccc(OCC4CCOCC4)c2)n(C)c(=O)n3C)c1` [Example 65, N-(1,3-dimethyl-2-oxo-6-(3-((tetrahydro-2H-pyran-4-yl)methoxy)phenoxy)-2,3-dihydro-1H-benzo[d]imidazol-5-yl)-1-methyl-1H-imidazole-4-sulfonamide] stands 100 to 1000 nM; under `COc1cc(OCC(C)C)cc(Oc2cc3c(cc2NS(=O)(=O)c2cn(C)c(C)n2)n(C)c(=O)n3C)c1` [Example 66, N-(6-(3-isobutoxy-5-methoxyphenoxy)-1,3-dimethyl-2-oxo-2,3-dihydro-1H-benzo[d]imidazol-5-yl)-1,2-dimethyl-1H-imidazole-4-sulfonamide], 10 to 100 nM.
Take `Cc1nc(S(=O)(=O)Nc2cc3c(cc2Oc2cccc(OCC(F)(F)F)c2)n(C)c(=O)n3C)cn1C` [Example 67, N-(1,3-dimethyl-2-oxo-6-(3-(2,2,2-trifluoroethoxy)phenoxy)-2,3-dihydro-1H-benzo[d]imidazol-5-yl)-1,2-dimethyl-1H-imidazole-4-sulfonamide]: the IC50 fell in the range of 10 to 100 nM.
Regarding `COCCCOc1cccc(Oc2cc3c(cc2NS(=O)(=O)c2cn(C)cn2)n(C)c(=O)n3C)c1` [Example 68, N-(6-(3-(3-methoxypropoxy)phenoxy)-1,3-dimethyl-2-oxo-2,3-dihydro-1H-benzo[d]imidazol-5-yl)-1-methyl-1H-imidazole-4-sulfonamide], the IC50 was 100 to 1000 nM.
Take `COc1cc(OCC(C)C)cc(Oc2cc3c(cc2NS(=O)(=O)C2CC2)n(C)c(=O)n3C)c1` [Example 69, N-(6-(3-isobutoxy-5-methoxyphenoxy)-1,3-dimethyl-2-oxo-2,3-dihydro-1H-benzo[d]imidazol-5-yl)cyclopropanesulfonamide]: the concentration for half-maximal inhibition (IC50) is 10 to 100 nM.
Take `C=C(C)COc1cccc(Oc2cc3c(cc2NS(=O)(=O)c2cn(C)cn2)n(C)c(=O)n3C)c1` [Example 70, N-(1,3-dimethyl-6-(3-((2-methylallyl)oxy)phenoxy)-2-oxo-2,3-dihydro-H-benzo[d]imidazol-5-yl)-1-methyl-1H-imidazole-4-sulfonamide]: the concentration for half-maximal inhibition (IC50) was 10 to 100 nM.
Turning to `Cn1cnc(S(=O)(=O)Nc2cc3c(cc2Oc2cccc(OCC(F)(F)F)c2)n(C)c(=O)n3C)c1` [Example 71, N-(1,3-dimethyl-2-oxo-6-(3-(2,2,2-trifluoroethoxy)phenoxy)-2,3-dihydro-1H-benzo[d]imidazol-5-yl)-1-methyl-1H-imidazole-4-sulfonamide], the IC50 was in the range of 10 to 100 nM.
Take `Cn1cc(S(=O)(=O)Nc2cc3c(cc2Oc2cccc(OCC(F)(F)F)c2)n(C)c(=O)n3C)cn1` [Example 72, N-(1,3-dimethyl-2-oxo-6-(3-(2,2,2-trifluoroethoxy)phenoxy)-2,3-dihydro-1H-benzo[d]imidazol-5-yl)-1-methyl-1H-pyrazole-4-sulfonamide]: the IC50 fell in the range of 10 to 100 nM.
Under `Cn1cc(S(=O)(=O)Nc2cc3c(cc2Oc2cccc(OC(F)(F)F)c2)n(C)c(=O)n3C)cn1` [Example 73, N-(1,3-dimethyl-2-oxo-6-(3-(trifluoromethoxy)phenoxy)-2,3-dihydro-1H-benzo[d]imidazol-5-yl)-1-methyl-1H-pyrazole-4-sulfonamide] stands > 1000 nM.
In the case of `C=CCOc1cccc(Oc2cc3c(cc2NS(=O)(=O)c2cn(C)cn2)n(C)c(=O)n3C)c1` [Example 74, N-(6-(3-(allyloxy)phenoxy)-1,3-dimethyl-2-oxo-2,3-dihydro-1H-benzo[d]imidazol-5-yl)-1-methyl-1H-imidazole-4-sulfonamide], the IC50 is 100 to 1000 nM.
Under `CCCOc1cccc(Oc2cc3c(cc2NS(=O)(=O)c2cnn(C)c2)n(C)c(=O)n3C)c1` [Example 75, N-(1,3-dimethyl-2-oxo-6-(3-propoxyphenoxy)-2,3-dihydro-1H-benzo[d]imidazol-5-yl)-1-methyl-1H-pyrazole-4-sulfonamide] stands 10 to 100 nM; under `Cn1cnc(S(=O)(=O)Nc2cc3c(cc2Oc2cccc(OCC#N)c2)n(C)c(=O)n3C)c1` [Example 76, N-(6-(3-(cyanomethoxy)phenoxy)-1,3-dimethyl-2-oxo-2,3-dihydro-1H-benzo[d]imidazol-5-yl)-1-methyl-1H-imidazole-4-sulfonamide], 100 to 1000 nM.

Source of the values: patent US20160060260A1, “BROMODOMAIN INHIBITORS FOR TREATING DISEASE” (Board of Regents, The University of Texas System, priority 2014, published 2016).
